Legend:
Assay type in all cases: in vivo, New Zealand White rabbits
[1] = Body weight at necropsy, cholesterol fed rabbit model; settings: cholesterol diet, OVX, necropsy at 20 weeks
Experimental: (§1) The model is considered relevant to the human atherosclerotic process, because the cellular events occurring during the development of the atherosclerotic lesions during the atherogenic diet are similar to those observed in different stages of atherosclerotic processes in coronary arteries.
(§2) An experiment was performed with 7 groups of sexually mature, virgin female New Zealand White rabbits (Harlan, Zeist, The Netherlands), age 7-9 months and weighing approximately 3 kg (number of […] per group: 13-14). During the acclimatization period the rabbits were fed a diet of standard commercial rabbit chow LKK20 (Hope Farms, Woerden, The Netherlands). Three weeks prior to the start of the experiment the animals were anaesthetized and underwent bilateral ovariectomy (OVX) or were sham operated. After three weeks, at the start of the experiment, the rabbits were randomized over the treatment groups. In all animals de-endothelialisation of a segment of the left carotid artery was applied by using the air-drying technique (Fishman, J.A. et al., "Endothelial regeneration in the rat carotid artery and the significance of endothelial denudation in the pathogenesis of myointimal thickening", Lab. Invest. 1975, 32, 339-351; and Lafont, A. et al., "Restenosis and experimental angioplasty: Intimal, medial and adventitial changes associated with constructive remodeling", Circulation Research, 1995, 76, 996-1002)
(§3) The animals were randomly allocated into 7 experimental groups using a randomized block design. The groups were fed an atherogenic diet (commercial rabbit chow (LKK20) enriched with 0.4 grams cholesterol, 3.75 grams coconut oil and 3.75 grams peanut oil per 100 grams). One group was fed the standard rabbit chow (LKK20). Food intake was restricted to 80 grams daily.
(§4) The treatments (Table I) were daily administered orally as a tablet, prepared as in Example 1. Groups 1, 2 and 3 were on a daily placebo treatment. Groups 4-5 were treated with 7α-methyl-17α-ethynyl-17β-hydroxy-estra-5(10)-en-3-one (OD-14; tibolone; 6 or 2 mg daily); group 6 with 17β-estradiol (4 mg daily). Group 7 was on treatment with 17β-estradiol decanoate (150 µg in 1 ml arachis oil injected subcutaneously once a week).
(§5) During the experiment blood samples were drawn out of the central ear artery after sedation with Hypnorm (0.1 ml i.m.) (Janssen Pharmaceutics, Beerse, Belgium) before the daily treatment, at week 4,8,12,16 and 20, to monitor the plasma cholesterol levels and to measure, at week 17, plasma estradiol levels and plasma tibolone levels. Twenty weeks after the start of the experiment animals were anaesthetized by an i.m. injection of Hypnorm (0.5 ml/kg). After blood sampling the rabbits were killed by exsanguination and the aortic arch, uterus and carotid artery removed for further analyses.
(§6) In addition to example 2 an additional experiment was performed with two lower doses of Org OD14 and a higher dose of estradiol decanoate. […] The procedures were identical to those in example 2.
(§7) Three weeks prior to the start of the experiment the animals were ovariectomized. At the start of the experiment the carotid artery was de-endothelialised using the air-drying technique. The normal rabbit chow was replaced by the atherogenic diet except for the control group which received during the experiment the normal rabbit chow.
(§8) The treatments (table II) of group 1, 2, 3 and 4 were daily administered orally as a tablet, prepared as in example 1. The doses of Org OD14 per tablet, however, were 0.6 mg and 0.15 mg respectively. Group 5 was on treatment with 17β-estradiol decanoate (300 µg in 1 ml arachis oil injected subcutaneously once a week). Twenty weeks after the start of the experiment was ended in the same manner as described in example 2.
After 20 weeks of diet and of daily treatment, necropsy was performed to determine the accumulation of cholesterol and fatty streaks in the aortic arch and the advanced lesions in the carotid artery. […]

[2] = tested on: female ovariectomized rabbits; assay: Fatty streaks in the aortic arch (Sudan Red, image analysis); settings: for Fatty streak in aortic arch: cholesterol diet, OVX, necropsy at 20 weeks
Experimental: as §1, §2, §3, §4, §5, §6, §7, §8
The aortic arch was dissected free, opened longitudinally and fixed in 2% paraformaldehyde. The tissue was then stained for lipids using 0.3% (w/v) Sudan Red. Colour photographs were taken of all segments. […]

[3] = tested on: female ovariectomized rabbits; assay: Intimal thickening (advanced lesions) in carotid artery after de-endothelialisation; settings: for Advanced lesions in carotid artery: intimal surface: cholesterol diet, OVX, necropsy at 20 weeks
Experimental: as §1, §2, §3, §4
as §5, with “analyses. […]” for “analyses.”
The left (airdried) carotid artery was dissected and fixed in 2% paraformaldehyde containing 6.8% glucose. The right carotid artery was used as comparison. After fixation the tissue was divided in blocks with a length of 2 mm and embedded in paraffin (Paraplast plus®, Sherwood Medical Co, St. Louis, USA) using an automated tissue processor (Hypercenter XP, Shandon).
To measure intimal thickening (using image analysis) a specific staining method and a belonging image analysis application have been developed.
Measurements were performed on 2 µm transverse sections which were treated with elastase (Serva Feinbiochemica Gmbh, Heidelberg, Germany) prior to elastin staining with Lawson solution (Boom, Meppel, the Netherlands) and light green (Sigma). Subsequently sections were airdried and mounted in Pertex (Leica Gmbh, Nussloch, Germany).
For morphological study both methylene blue/Azur II and hemotoxylin/eosin stained (2 µm) transverse sections were used. Smooth muscle cells and macrophages were detected with respectively α-actin antibodies (Sigma) and anti-macrophage antibodies (RAM11, DAKO, Glostrup, Denmark). […]

[4] = Plasma estradiol and plasma tibolone levels at week 17; settings: rabbit, 6 mg per day
Experimental: as §5
The plasma levels indicate that both modes of administration of estradiol lead to effective plasma levels. Using the human doses of estradiol and Org OD14 used for HRT treatment and corrected for the caloric intake it was expected that in the rabbit an oral dose of 4 mg estradiol is about equipotent with 6 mg Org OD14.

[5] = tested on: female ovariectomized rabbits; assay: Overall atherosclerotic lesion formation, cholesterol fed rabbit model; settings: Example 3: Org OD14 0.6 mg orally daily; estradiol decanoate 300 µg s.c. weekly
Experimental: as §1, §6, §7, §8
In example 3 we tested Org OD14 at two lower doses (0.6 and 0.15 mg orally once daily) and estradiol decanoate at a higher dose (300 µg s.c. once weekly). […]

[6] = Example 2, Group 4: 6 mg orally daily
[7] = Example 2, Group 5: 2 mg orally daily
[8] = Example 3: 0.15 mg orally once daily
[9] = Example 3: 0.6 mg orally once daily
[10] = Example 2: Org OD14 2 and 6 mg, E2 4 mg orally daily, E2D 150 µg s.c. weekly

C#C[C@]1(O)CC[C@H]2[C@@H]3[C@H](C)CC4=C(CCC(=O)C4)[C@H]3CC[C@@]21C [Org OD14, 7α-methyl-17α-ethynyl-17β-hydroxy-estra-5(10)-en-3-one]
Body weight [1, 6]: 2758 ± 41 grams
Body weight [1, 7]: 2815 ± 50 grams
Body weight [1, 8]: 2850 ± 42 grams
Body weight [1, 9]: 3008 ± 58 grams
Fatty streak in aortic arch [2, 6]: 1.3 ± 0.8 % of arcus covered
Fatty streak in aortic arch [2, 7]: 1.4 ± 0.7 % of arcus covered
Fatty streak formation in the aortic arch (in words) [2, 10]: (nearly) completely prevented the fatty streak formation
Fatty streak in aortic arch [2, 8]: 23.5 ± 5.3 % of arcus covered
Fatty streak in aortic arch [2, 9]: 5.9 ± 2.4 % of arcus covered
Advanced lesions in carotid artery: intimal surface [3, 6]: 0.13 ± 0.03 * mm^2
Advanced lesions in carotid artery: intimal surface [3, 7]: 0.14 ± 0.02 * mm^2
Histology of the lesions ([3]; Example 2, carotid artery, placebo on cholesterol diet: smooth muscle cells and foam cells): the lesions consisted only of smooth muscle cells
advanced lesion formation following mechanical de-endothelisation (in words) [3, 10]: strongly inhibited the formation of advanced lesions
Advanced lesions in carotid artery: intimal surface [3, 8]: 0.24 ± 0.05 mm^2
Advanced lesions in carotid artery: intimal surface [3, 9]: 0.14 ± 0.01 * mm^2
plasma concentrations of Org OD14 [4]: comparable to those obtained in women with the clinical dose of 2.5 mg
atherosclerotic lesion formation (in words) [5]: still nearly completely prevented
